Where “and” joins values, the source holds several entries; their conditions need not be identical. Identical values can stand only once. Counter-ions that a name gives are not always drawn.
Legend:
β-secretase (BACE) = molecular target: T1, β-secretase (BACE) (Homo sapiens, UniProt P56817); experiment: BACE FS1 Assay (% Inhibition and Ki); format: biochemical; details: FS1 substrate; for inhibition at 0.3 µM: 0.3 μM test compound, read-out: % Inhibition (FS) @ 0.3 μM; for inhibition at 1 µM: 1 μM test compound, read-out: % Inhibition (FS) @ 1 μM; for inhibition at 3 µM: 3 μM test compound, read-out: % Inhibition (FS) @ 3 μM
T1 construct: purchased Panvera
Description: BACE FS1 Assay (% Inhibition and Ki)
The following reagents were used in this assay: sodium acetate, PEG8000 (Sigma), DMSO, HEPES, FS1 substrate [R(AedensE)[…]-(DabcylK)R], β-secretase (BACE) (Panvera), and 96-well plate (HE microplate, Molecular Devices).
The following assay buffers were prepared and used in this assay: (1) enzyme assay buffer (0.05 M sodium acetate, pH5, 0.1% PEG8000 (w/v)), (2) substrate assay buffer (0.05 M sodium acetate, pH5), and (3) compound vehicle (30% DMSO in 50 mM HEPES, pH 7.4).
The FS1-substrate stock solution was prepared in DMSO as a 10 mg/mL solution. The FS1-substrate working solution was prepared by diluting the 10 mg/mL stock solution with substrate assay buffer to a final concentration of 300 μg/mL. The β-secretase (BACE) working solution was prepared by diluting a 0.83 mg/mL BACE stock solution with enzyme assay buffer to a final concentration of 4 μg/mL.
Test compounds were dissolved in DMSO to 10 mM. Compounds were further diluted in vehicle to various concentrations in the range of 405 μM to 4.05 μM (13.5× final compound concentration in screening plate).
The screening procedure for this assay was as follows: 15 μL of BACE working solution was pipetted into each well of a 96-well plate. To each well was then pipetted 2 μL of test compound at the selected concentration. Test compound and BACE were then mixed with a pipettor and incubated for 20 min at room temperature. To each well was then added 10 μL of the FS1 substrate working solution. The plates were then incubated for 1 hour at room temperature. The fluorescence for each well was then measured on an LJL analyst (Ex 360 nm/Em 530 nm).
The procedure for the blank was as follows. 15 μL of assay buffer was pipetted into each well to be used as a blank control. To each well was then added 2 μL of vehicle and […] of FS1-substrate working solution. The plates were then incubated for 1 hour at room temperature. The fluorescence was measured on an LJL analyst (Ex 360 nm/Em 530 nm).
The procedure for the positive control was as follows: 15 μL of BACE working solution was pipetted into each well to be used as a positive control. To each well was then pipetted 2 μL of vehicle. Vehicle and BACE were then mixed with a pipettor and incubated for 20 min at room temperature. To each well was then added 10 μL of the FS1 substrate working solution. The plates were then incubated for 1 hour at room temperature. The fluorescence (F1) was then measured on an LJL analyst (Ex 360 nm/Em 530 nm).
For test compounds, % inhibition was determined at each concentration as follows:
% Inhibition values of less than 30% were indistinguishable from control are listed as ≦30% in Table 18, below.
For test compounds, measured at multiple concentrations, the measured T0 and T60 values were used to calculate an IC50 value using Graphpad Software (or PIR). Ki inhibition was determined as follows: For each compound concentration and positive control, rate of cleavage of substrate (Vi, where i=compound concentration in μM) was determined as Δ Fluorescence/Δ time (min). Cleavage rates (Vi) were plotted as a function of inhibitor concentration in μM [I]. […]

human BACE-1 = human BACE-1 (Homo sapiens, UniProt P56817); experiment: CEREP BACE Inhibition Assay; format: biochemical; details: recombinant enzyme
How it was run: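 Recombinant human BACE-1 (0.25 μg) was assayed in 0.09 M sodium acetate pH 4.5, with activity followed fluorimetrically as formation of Mca-S-E-V-N-L[…] from peptide substrate. Compound autofluorescence was checked at the detection wavelengths. Basal signal was taken from wells without substrate.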

[1] = 0.3 μM, percent inhibition of the control activity

T1 sequence (P56817 46-501): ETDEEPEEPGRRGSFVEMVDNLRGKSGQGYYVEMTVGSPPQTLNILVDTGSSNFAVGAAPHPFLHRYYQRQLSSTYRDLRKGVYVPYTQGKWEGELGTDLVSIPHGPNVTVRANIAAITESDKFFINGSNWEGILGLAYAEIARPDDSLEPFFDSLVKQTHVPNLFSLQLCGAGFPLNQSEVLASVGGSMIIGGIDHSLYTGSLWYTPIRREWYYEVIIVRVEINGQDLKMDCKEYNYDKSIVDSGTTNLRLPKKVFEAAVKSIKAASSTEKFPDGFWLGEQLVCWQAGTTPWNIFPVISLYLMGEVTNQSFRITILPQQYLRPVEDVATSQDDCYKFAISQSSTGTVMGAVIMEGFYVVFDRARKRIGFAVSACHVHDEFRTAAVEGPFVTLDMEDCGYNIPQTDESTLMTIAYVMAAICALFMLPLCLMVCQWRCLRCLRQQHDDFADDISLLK
Sequence of human BACE-1 (P56817 46-501): as above

| SMILES | inhibition at 0.3 µM (β-secretase (BACE)) [%] | inhibition at 1 µM (β-secretase (BACE)) [%] | inhibition at 3 µM (β-secretase (BACE)) [%] | Ki (β-secretase (BACE)) [nM] | % Inhibition @ 0.3 μM (human BACE-1; [1]) | inhibition at 0.3 µM (human BACE-1; [1]) [%] | IC50 (human BACE-1; read-out: IC50) |
| --- | --- | --- | --- | --- | --- | --- | --- |
| NC1=Nc2cnc(Oc3ccccc3)cc2CN1[C@@H](CCC(=O)N(CCO)C1CCCCC1)C1CCCCC1 [Compound 7, 4-(2-Amino-6-phenoxy-4H-pyrido[3,4-d]pyrimidin-3-yl)-4S,N-dicyclohexyl-N-(2-hydroxy-ethyl)-butyramide] | 136 | 136 | 134 | 10 | 95% and 100% | 91 | 140 nM and 150 nM |
| NC1=Nc2cnc(Oc3ccccc3)cc2CN1[C@@H](CCC(=O)N(CCO)[C@H]1CC[C@@H](C(=O)O)CC1)C1CCCCC1 [Compound 37] | 112 | 111 | 114 | 12 |  |  |  |
| NC1=Nc2cnc(Oc3ccccc3)cc2CN1[C@@H](CCC(=O)N(CCO)[C@H]1CC[C@@H](C(=O)O)CC1)C1CCOCC1 [Compound 38, 4-[[4-(2-Amino-6-phenoxy-4H-pyrido[3,4-d]pyrimidin-3-yl)-4-(S)-(tetrahydro-pyran-4-yl)-butyryl]-(2-hydroxy-ethyl)-amino]-cyclohexanecarboxylic acid] | 112 | 110 | 115 | 9 |  |  |  |
| NC1=Nc2cnc(Oc3ccccc3)cc2CN1[C@@H](CCC(=O)N(CCOCc1ccccc1)[C@H]1CC[C@@H](C(=O)O)CC1)C1CCOCC1 [Compound 39, 4-[[4-(2-Amino-6-phenoxy-4H-pyrido[3,4-d]pyrimidin-3-yl)-4-(S)-(tetrahydro-pyran-4-yl)-butyryl]-(2-benzyloxy-ethyl)-amino]-cyclohexanecarboxylic acid] | 112 | 110 | 115 | 13 |  |  |  |
| CC(C)[C@H](CCC(=O)N(C)[C@H]1CC[C@@H](C(=O)O)CC1)N1Cc2cc(Oc3ccccc3)ncc2N=C1N [Compound 43] | 110 | 107 | 115 | 16 |  |  |  |
| CN(CCCCC(=O)O)C(=O)CC[C@@H](C1CCCCC1)N1Cc2cc(Oc3ccccc3)ncc2N=C1N [Compound 44] | 61 | 88 | 105 | 148 |  |  |  |
| COC(=O)[C@H](COCc1ccccc1)NC(=O)CC[C@@H](C(C)C)N1Cc2cc(Oc3ccccc3)ncc2N=C1N [Compound 45, 2-[4-(2-Amino-6-phenoxy-4H-pyrido[3,4-d]pyrimidin-3-yl)-5-methyl-(S)-hexanoylamino]-3-(S)-benzyloxy-propionic acid methyl ester hydrobromide salt] | 82 | 91 | 110 | 127 |  |  |  |
| CC(C)[C@H](CCC(=O)N[C@@H](COCc1ccccc1)C(=O)O)N1Cc2cc(Oc3ccccc3)ncc2N=C1N [Compound 47, 2-[4-(2-Amino-6-phenoxy-4H-pyrido[3,4-d]pyrimidin-3-yl)-5-methyl-(S)-hexanoylamino]-3-(S)-benzyloxy-propionic acid] | 109 | 109 | 115 | 72 |  |  |  |
| CC(C)[C@H](CCC(=O)N[C@H](COCc1ccccc1)C(=O)OCc1ccccc1)N1Cc2cc(Oc3ccccc3)ncc2N=C1N [Compound 48] | 73 | 107 | 116 | 36 |  |  |  |
| CCC(CC)N(CCO)C(=O)CC[C@@H](C1CCCCC1)N1Cc2cc(Oc3ccccc3)ncc2N=C1N [Compound 50] | 68 | 100 | 112 | 58 |  |  |  |
| COC(=O)[C@H](COCc1ccccc1)N(C)C(=O)CC[C@@H](C(C)C)N1Cc2cc(Oc3ccccc3)ncc2N=C1N [Compound 51, 2-{[4-(2-Amino-6-phenoxy-4H-pyrido[3,4-d]pyrimidin-3-yl)-5-methyl-(S)-hexanoyl]-methyl-amino}-3-(S)-benzyloxy-propionic acid methyl ester trifluoroacetate salt] | 114 | 118 | 118 | 14 |  |  |  |
| CC(C)[C@H](CCC(=O)N(C)[C@@H](COCc1ccccc1)C(=O)O)N1Cc2cc(Oc3ccccc3)ncc2N=C1N [Compound 52, 2-{[4-(2-Amino-6-phenoxy-4H-pyrido[3,4-d]pyrimidin-3-yl)-5-methyl-(S)-hexanoyl]-methyl-amino}-3-(S)-benzyloxy-propionic acid trifluoroacetate salt] | 107 | 118 | 118 | 9 |  |  |  |

Source: patent publication US7531545B2, “2-amino-3,4-dihydro-pyrido[3,4-d]pyrimidine derivatives useful as inhibitors of β-secretase (BACE)” (Janssen Pharmaceutica, N.V., priority 2005, dated 2009)
